In publication PMC8956739, “A synthetic lipopeptide targeting top-priority multidrug-resistant Gram-negative pathogens” (Nature Communications, 2022):
≈ marks a conversion by molar mass, not a printed value. Where “and” joins values, the source holds several entries; their conditions need not be identical. Identical values can stand only once. Like-named read-outs stand apart in the source and are kept apart here. Residues, ends and D or L forms follow the SMILES beside them.

Legend:
P. aeruginosa ATCC 27853 [1] = test: Neutropenic mouse bloodstream infection model; format: in vivo; settings: single IV dose 4 mg/kg; for Log10 CFU/mL blood at 4 h, Mean / Δlog10 CFU/mL blood (mean) / Log10 CFU/mL blood at 4 h, single mouse: 4 h; for Δlog10 CFU/mL blood (mean): treated minus control, mean of replicates; for Δlog10 CFU/mL blood (mean) / Log10 CFU/mL blood at 4 h, single mouse / Delta Log10 CFU/mL blood at 4 h, single mouse: 4 mg/kg; for Delta Log10 CFU/mL blood at 4 h, single mouse: treated mouse minus mean of vehicle mice
Procedure, shortened: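 Female Swiss mice made neutropenic with cyclophosphamide (150 mg/kg day −4, 100 mg/kg day −1), infected IV with 50 µL of 4 × 10^8 CFU/mL. Lipopeptide 4 mg/kg (free base) IV at 2 h post-inoculation, n = 3. Efficacy = Δlog10 CFU/mL blood versus saline at 4 h post-dose.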

Swiss mice, kidney = test: Nephrotoxicity in mice (kidney histopathology); format: in vivo, mouse; settings: for Kidney histopathology (SQS Score): n = 3
Procedure, shortened: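 Female Swiss mice (7-week-old, 22–28 g) received lipopeptides in saline either s.c. at 12 mg/kg ×6 every 2 h (total 72 mg/kg, n = 3) or i.p. at 20 or 25 mg/kg ×6 every 2 h (total 120 mg/kg, n = 6; 150 mg/kg, n = 3). Right kidney collected 20 h after last dose, fixed in 10% buffered formalin (pH 7.4), histology scored blinded.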

A. baumannii ATCC 19606 = format: cell-based, Acinetobacter baumannii
Procedure, shortened: (§1)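 Susceptibility: microdilution MIC in CaMHB.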

A. baumannii FADDI-AB030 = format: cell-based, Acinetobacter baumannii
Procedure, shortened: (§2)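 Broth microdilution, CaMHB; MIC read as the antibacterial endpoint against ATCC reference strains and clinical isolates.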

A. baumannii FADDI-AB034 = format: cell-based, Acinetobacter baumannii
Procedure, shortened: as §2

P. aeruginosa ATCC 27853 [2] = format: cell-based, Pseudomonas aeruginosa
Procedure, shortened: as §1

[3] = test system: P. aeruginosa FADDI-PA025; format: cell-based, Pseudomonas aeruginosa
Procedure, shortened: as §2

[4] = test system: P. aeruginosa FADDI-PA038; format: cell-based, Pseudomonas aeruginosa
Procedure, shortened: as §2

[5] = test system: K. pneumoniae FADDI-KP032; format: cell-based, Klebsiella pneumoniae
Procedure, shortened: as §2

[6] = test system: K. pneumoniae FADDI-KP065; format: cell-based, Klebsiella pneumoniae
Procedure, shortened: as §2

[7] = 72 mg/kg/d subcutaneously in six divided doses every 2 h

SMILES	Log10 CFU/mL blood at 4 h, Mean (P. aeruginosa ATCC 27853 [1]) [Log10 CFU/mL blood]	Δlog10 CFU/mL blood (mean) (P. aeruginosa ATCC 27853 [1]) [log10 CFU/mL blood]	Log10 CFU/mL blood at 4 h, single mouse (P. aeruginosa ATCC 27853 [1])	Delta Log10 CFU/mL blood at 4 h, single mouse (P. aeruginosa ATCC 27853 [1])	Kidney histopathology (SQS Score) (Swiss mice, kidney; [7])	Kidney histopathology, mice with the SQS score (Swiss mice, kidney; mouse, in vivo)	MIC A. baumannii ATCC 19606 (A. baumannii ATCC 19606; ATCC 19606) [µg/mL]	MIC A. baumannii FADDI-AB030 (A. baumannii FADDI-AB030; FADDI-AB030) [µg/mL]	MIC A. baumannii FADDI-AB034 (A. baumannii FADDI-AB034; FADDI-AB034) [µg/mL]	MIC P. aeruginosa ATCC 27853 (P. aeruginosa ATCC 27853 [2]; ATCC 27853) [µg/mL]	MIC P. aeruginosa FADDI-PA025 ([3]; FADDI-PA025) [µg/mL]	MIC P. aeruginosa FADDI-PA038 ([4]; FADDI-PA038) [µg/mL]	MIC K. pneumoniae FADDI-KP032 ([5]; FADDI-KP032) [µg/mL]	MIC K. pneumoniae FADDI-KP065 ([6]; FADDI-KP065) [µg/mL]	also measured
CCCCCCCC(=O)N[C@@H](CCN)C(=O)N[C@H](C(=O)N[C@@H](CCCN)C(=O)N[C@H]1CCNC(=O)[C@H]([C@@H](C)O)NC(=O)[C@H](CCN)NC(=O)[C@H](CCN)NC(=O)[C@H]([C@@H](C)O)NC(=O)[C@@H](CC(C)C)NC(=O)[C@H](CCN)NC1=O)[C@@H](C)O [Lipopeptide F252] (HELM PEPTIDE1{[CCCCCCCC(=O)[*:2]].[Dab].T.[Orn].[Dab].[Dab].[dL].T.[Dab].[Dab].T}$PEPTIDE1,PEPTIDE1,5:R3-11:R2$$$V2.0)	5.46	−1.98	5.30 Log10 CFU/mL blood and 5.91 Log10 CFU/mL blood and 5.19 Log10 CFU/mL blood	-2.15 Log10 CFU/mL blood and -1.54 Log10 CFU/mL blood and -2.26 Log10 CFU/mL blood	+1 (SQS + 1 = mild damage (overall score, 1 to <15))	2/3	1 (≈ 0.864 µM)	0.5 (≈ 0.432 µM)	1 (≈ 0.864 µM)	0.5 (≈ 0.432 µM)	>32	2 (≈ 1.73 µM)	<0.125	0.5 (≈ 0.432 µM)	–
CC[C@@H]1NC(=O)[C@@H](CC(C)C)NC(=O)[C@H](CCN)NC(=O)[C@@H](NC(=O)[C@H](CN)NC(=O)[C@@H](NC(=O)[C@H](CCN)NC(=O)c2cccc(Cl)c2)[C@@H](C)O)CCNC(=O)[C@H]([C@@H](C)O)NC(=O)[C@H](CCN)NC(=O)[C@H](CCN)NC1=O [Lipopeptide F371] (HELM PEPTIDE1{[O=C(c1cccc(Cl)c1)[*:2]].[Dab].T.[NC[C@H](N[*:1])C(=O)[*:2]].[Dab].[Dab].[dL].[Abu].[Dab].[Dab].T}$PEPTIDE1,PEPTIDE1,5:R3-11:R2$$$V2.0)	4.61	−3.33	4.74 Log10 CFU/mL blood and 4.86 Log10 CFU/mL blood and 4.22 Log10 CFU/mL blood	-3.20 Log10 CFU/mL blood and -3.08 Log10 CFU/mL blood and -3.71 Log10 CFU/mL blood	0 (SQS 0 = no significant change (overall score, <1))	–	–	–	–	–	–	–	–	–	Kidney histopathology, mice with the SQS score (Swiss mice, kidney; [7]): 3/3; MIC A. baumannii ATCC 19606 (A. baumannii ATCC 19606): 4 µg/mL (≈ 3.55 µM); MIC A. baumannii FADDI-AB030 (A. baumannii FADDI-AB030; carbapenem-resistant isolate): 1 µg/mL (≈ 0.888 µM); MIC A. baumannii FADDI-AB034 (A. baumannii FADDI-AB034; carbapenem-resistant isolate): 1 µg/mL (≈ 0.888 µM); MIC P. aeruginosa ATCC 27853 (P. aeruginosa ATCC 27853 [2]): 0.5 µg/mL (≈ 0.444 µM); MIC P. aeruginosa FADDI-PA025 ([3]; MDR clinical isolate): 1 µg/mL (≈ 0.888 µM); MIC P. aeruginosa FADDI-PA038 ([4]; carbapenem-resistant isolate): 2 µg/mL (≈ 1.78 µM); MIC K. pneumoniae FADDI-KP032 ([5]; carbapenem-resistant isolate): 0.5 µg/mL (≈ 0.444 µM); MIC K. pneumoniae FADDI-KP065 ([6]; carbapenem-resistant isolate): 1 µg/mL (≈ 0.888 µM)
CCCCCCCC(=O)N[C@@H](CCN)C(=O)N[C@H](C(=O)N[C@@H](CCN)C(=O)N[C@H]1CCNC(=O)[C@H]([C@@H](C)O)NC(=O)[C@H](CCN)NC(=O)[C@H](CCN)NC(=O)[C@H](C(C)C)NC(=O)[C@@H](CC(C)C)NC(=O)[C@H](CCN)NC1=O)[C@@H](C)O [Lipopeptide F225] (HELM PEPTIDE1{[CCCCCCCC(=O)[*:2]].[Dab].T.[Dab].[Dab].[Dab].[dL].V.[Dab].[Dab].T}$PEPTIDE1,PEPTIDE1,5:R3-11:R2$$$V2.0)	4.59	−2.86	4.22 Log10 CFU/mL blood and 4.78 Log10 CFU/mL blood (2×)	-3.23 Log10 CFU/mL blood and -2.67 Log10 CFU/mL blood (2×)	0 (SQS 0 = no significant change (overall score, <1))	3/3	0.5 (≈ 0.438 µM)	0.25 (≈ 0.219 µM)	0.25 (≈ 0.219 µM)	1 (≈ 0.876 µM)	4 (≈ 3.5 µM)	1 (≈ 0.876 µM)	<0.125	<0.125	–
